The values that follow come from US20210052621A1, “METHODS FOR TREATING FLAVIVIRUSES AND ZIKA INFECTIONS” (THE REGENTS OF THE UNIVERSITY OF CALIFORNIA, priority 2017, published 2021).

For assay [1], the system named is ZIKA in Vero cells. The experiment in a line: Screening of additional compounds for ZIKA levels using Vero cells (viral RNA released, qRT-PCR). The note with it: 10 μM, viral RNA released by qRT-PCR. It counts as cell-based, Zika virus. The procedure:
FIG. 6. Screening of additional compounds for ZIKA levels using Vero cells (in 10 μM concentration). Methods of screening were as described herein. Viral RNA released was analyzed by qRT-PCR for ZIKA. Compounds (left to right): control, berberine, fluoxetine, formoterol, genistine, U0126, dibucaine, pirlindole, suramin, mycophenolic acid, polyhydroxyalkanoates, (PHA) and niclosamide.
FIG. 7. Screening of additional compounds for ZIKA levels using Vero cells (in 10 μM concentration) as described for FIG. 6. Compounds (left to right): clomiphene, amphotericin B, and toremifene.
FIG. 8. Screening of additional compounds for ZIKA levels using Vero cells (in 10 μM concentration) as described for FIG. 6.
FIG. 6 depicts ZIKV levels as determined by qRT-PCR for ZIKA in Vero cells at 10 μM concentration (left to right) of control, berberine, fluoxentine, formoterol, genistine, U0126, dibucaine, pirlindole, suramin, mycophenolic acid, PHA, and niclosamide.
FIG. 7 depicts dose response studies on ZIKV levels for clomiphene, amphotericin B, and toremifene.
FIG. 8 depicts ZIKV levels after administration of various agents. […] Zidovudine. Acyclovir. Drostanolone Propionate, Dapivirine (TMC120), Tilorone hydrochloride, and Docosanol.

In assay [2] the test system is Zika virus in 293 T cells. In words: Dose dependent inhibition of Zika virus in 293 T cells, IC50 calculated. The assay is classed as cell-based. Conditions: MOI of 5, different concentration of drugs. The procedure:
FIGS. 2A-2D. […] FIG. 2A—Lopinavir. FIG. 2B—Daclatasvir. FIG. 2C—Oxyclozanide. FIG. 2D—Rafoxanide.
Conditions: Zika virus in 293 T cells at the MOI of 5 using different concentration of drugs. IC50 was calculated.

Assay [3] deals with ZIKA in 293 cells. The experiment in a line: ZIKA inhibition in 293 cells visualized by immune staining. The assay is classed as cell-based, Zika virus. Conditions: 20 μM. The source says:
FIGS. 9A-9K. […] Drugs: mock (FIG. 9A), DMSO (FIG. 9B), PHA-690509 (FIG. 9C), formoterol (FIG. 9D), fluoxetine (FIG. 9E), genistein (FIG. 9F), U0126 (FIG. 9G), berberine (FIG. 9H), dibucaine (FIG. 9I), pirlindole (FIG. 9J), and suramin (FIG. 9K). Left panels: DAPI; right panels: ZIKV.
Agents in order (top to bottom): mock, DMSO, PHA-690509, formoterol, fluoxetine, genistein, U0126, berberine, dibucaine, pirlindole, and suramin.

Assay [4] concerns ZIKV in human microglial cell line. The experiment in a line: ZIKV replication in microglia treated with nucleoside metabolic inhibitors (RT-qPCR, immunohistochemistry). Conditions: MOI of 1, 1 μM and 10 μM, 48 hpi. The assay is classed as cell-based, Zika virus. The procedure:
FIGS. 14A-14D. Nucleoside Metabolic Inhibitors Attenuate ZIKV Replication. (FIG. 14A) ZIKV replication assessed by RT-qPCR analysis 48 hours post-infection in mock, ZIKV only, ZIKV plus 1 μM floxuridine or ZIKV plus 10 μM floxuridine treated microglia. Data are presented as the mean±SEM of n=3. *p<0.05, **p<0.01 by t-test. (FIG. 14B) Immunohistochemistry of ZIKV gene expression in mock, ZIKV only, ZIKV plus 1 μM floxuridine (FUDX1) or ZIKV plus 10 μM floxuridine (FUDX10) treated microglia. Cells were stained with anti-flavivirus envelope protein (ZIKVE), and nuclei were visualized with Hoechst 33258. (FIG. 14C) ZIKV replication assessed by RT-qPCR analysis 48 hours post-infection in mock, ZIKV only, ZIKV plus fluorouracil or ZIKV plus 10 μM fluorouracil treated microglia. Data are presented as the mean±SEM of n=3. *p<0.05, **p<0.01 by t-test. […]
Since metabolic processes are the most dysregulated pathways during ZIKV infection at the transcriptome level, we hypothesized that inhibition of these pathways could be exploited for therapeutic effects. […] The effect of the antimetabolites floxuridine (FIGS. 14A-14B) and flurouracil (FIGS. 14C-14D) on ZIKV replication was assessed 48 hpi at the RNA and protein level by RT-qPCR and immunohistochemistry, respectively.
Drug Treatment. […] ZIKV RNA was quantified by using specific primers by SYBR Green PCR Master Mix (Bio-Rad) using a Roche LightCycler 480. […]
In general terms: Real-time PCR tracks product formation cycle by cycle.

“Also recorded” adds a separate entry of the source. Counter-ions that a name gives are not always drawn.

Regarding `Cc1cc(C)c(Nc2ccnc(Nc3ccc(C#N)cc3)n2)c(C)c1` [Dapivirine (TMC120), 4-{[4-(mesitylamino)-2-pyrimidinyl]amino}benzonitrile], the “ZIKV levels / ZIKV load (Hits)” value in assay [1] was “reduce ZIKV load”.

As to `CCCCCCCCCCCCCCCCCCCCCCO` [Docosanol], in assay [1], the “ZIKV levels / ZIKV load (Hits)” value is on record as “reduce ZIKV load”.

With `Nc1nc2c(ncn2COC(CO)CO)c(=O)[nH]1` [Ganciclovir, 9-(1,3-dihydroxy-2-propoxymethyl)guanine], the “ZIKV levels / ZIKV load (Hits)” value in assay [1] was “reduce ZIKV load”.

In the case of `Cc1cccc(C)c1OCC(=O)N[C@@H](Cc1ccccc1)[C@@H](O)C[C@H](Cc1ccccc1)NC(=O)[C@H](C(C)C)N1CCCNC1=O` [Lopinavir, (2S)—N-[(2S,4S,5S)-5-[2-(2,6-dimethylphenoxy)acetamido]-4-hydroxy-1,6-diphenylhexan-2-yl]-3-methyl-2-(2-oxo-1,3-diazinan-1-yl)butanamide], the “Dose dependent inhibition of Zika virus” value in assay [2] is reported as “Dose dependent inhibition”.

Consider `O=C(Nc1cc(Cl)cc(Cl)c1O)c1c(O)c(Cl)cc(Cl)c1Cl` [Oxyclozanide], for which, in assay [2], the “Dose dependent inhibition of Zika virus” value is given as “Dose dependent inhibition”.

Take `CC(=O)Nc1ccc([C@H](C)C(=O)Nc2ncc(C(C)C)s2)cc1` [PHA-690509]: the “ZIKA inhibition visualized by immune staining” value (from here on “ZIKA inhibition visualized”) in assay [3] is given as “ZIKA inhibition”.

For `CCN(CC)CCOC(=O)c1ccc(N)cc1` [Procaine hydrochloride, 4-amino-, 2-(diethylamino) ethyl ester monohydrochloride], the “ZIKV levels / ZIKV load (Hits)” value in assay [1] is on record as “reduce ZIKV load”.

With `O=C(Nc1ccc(Oc2ccc(Cl)cc2)c(Cl)c1)c1cc(I)cc(I)c1O` [Rafoxanide], the “Dose dependent inhibition of Zika virus” value in assay [2] is given as “Dose dependent inhibition”.

`CCN(CC)CCOc1ccc2c(c1)C(=O)c1cc(OCCN(CC)CC)ccc1-2.Cl` [Tilorone hydrochloride, 2,7-Bis(2-diethylaminoethoxy)fluoren-9-one hydrochloride]: the “ZIKV levels / ZIKV load (Hits)” value in assay [1] is “reduce ZIKV load”.

`N#CC(=C(/N)Sc1ccccc1N)/C(C#N)=C(\N)Sc1ccccc1N` [U0126]: the “ZIKA inhibition visualized” value in assay [3] was “ZIKA inhibition”.

As to `Cc1cn([C@H]2C[C@H](N=[N+]=[N-])[C@@H](CO)O2)c(=O)[nH]c1=O` [Zidovudine, 3′-deoxy-3′-azido-thymidine], in assay [1], the “ZIKV levels / ZIKV load (Hits)” value is on record as “reduce ZIKV load”.

As to `COc1ccc2cc3[n+](cc2c1OC)CCc1cc2c(cc1-3)OCO2` [berberine], the “ZIKA inhibition visualized” value in assay [3] was “ZIKA inhibition”.

In the case of `CCCCOc1cc(C(=O)NCCN(CC)CC)c2ccccc2n1` [dibucaine], the “ZIKA inhibition visualized” value in assay [3] is on record as “ZIKA inhibition”.

For the molecule `O=c1[nH]c(=O)n([C@H]2C[C@H](O)[C@@H](CO)O2)cc1F` [floxuridine], in assay [4], the “ZIKV replication (RT-qPCR and immunohistochemistry)” value is given as “inhibited ZIKV more efficiently in a dose dependent manner than flurouracil; also recorded: dose-dependent inhibition of ZIKV replication; also recorded: abrogated ZIKV replication”.

For the molecule `CNCCC(Oc1ccc(C(F)(F)F)cc1)c1ccccc1` (centres unmarked) [fluoxetine, N-methyl-3-phenyl-3-[4-(trifluoromethyl)phenoxy]propan-1-amine], the “ZIKA inhibition visualized” value in assay [3] is on record as “ZIKA inhibition”.

Regarding `O=c1[nH]cc(F)c(=O)[nH]1` [flurouracil], the “ZIKV replication (RT-qPCR and immunohistochemistry)” value in assay [4] is given as “affected ZIKV”.

In the case of `COc1ccc(CC(C)NCC(O)c2ccc(O)c(NC=O)c2)cc1` (centres unmarked) [formoterol], in assay [3], the “ZIKA inhibition visualized” value was “ZIKA inhibition”.

On to `O=c1c(-c2ccc(O)cc2)coc2cc(O)cc(O)c12` [genistein], for which the “ZIKA inhibition visualized” value in assay [3] is “ZIKA inhibition”.

`Cc1ccc2c(c1)c1c3n2CCNC3CCC1` (centres unmarked) [pirlindole]: in assay [3], the “ZIKA inhibition visualized” value was “ZIKA inhibition”.

Regarding `Cc1ccc(C(=O)Nc2ccc(S(=O)(=O)O)c3cc(S(=O)(=O)O)cc(S(=O)(=O)O)c23)cc1NC(=O)c1cccc(NC(=O)Nc2cccc(C(=O)Nc3cc(C(=O)Nc4ccc(S(=O)(=O)O)c5cc(S(=O)(=O)O)cc(S(=O)(=O)O)c45)ccc3C)c2)c1` [suramin, 8,8′-{Carbonylbis[imino-3,1-phenylenecarbonylimino(4-methyl-3,1-phenylene)carbonylimino]}di(1,3,5-naphthalenetrisulfonic acid)], in assay [3], the “ZIKA inhibition visualized” value is listed as “ZIKA inhibition”.
